Assay results: ChEMBL document CHEMBL4725268, “Anticonvulsant and analgesic in neuropathic pain activity in a group of new aminoalkanol derivatives” (Bioorg Med Chem Lett, 2020)
Calls of active or inactive are those of the source.

Legend:
[1] = Genotoxicity in Salmonella typhimurium TA98 assessed as number of revertant at 200 ug by AMES test (reference value: 8 to 8.3); type: toxicity, Salmonella enterica subsp. enterica serovar Typhimurium; conditions: in vivo; dose 200 µg
[2] = Genotoxicity in Salmonella typhimurium TA98 assessed as mutagenic index at 750 ug by AMES test; type: toxicity, Salmonella enterica subsp. enterica serovar Typhimurium; conditions: in vivo; dose 750 µg
[3] = Toxicity in ip dosed mouse assessed as motor impairment by rotarod test; type: organism-based; conditions: in vivo
[4] = Genotoxicity in Salmonella typhimurium TA100 assessed as mutagenic index at 10 ug by AMES test; type: toxicity, Salmonella enterica subsp. enterica serovar Typhimurium; conditions: in vivo; dose 10 µg
[5] = Genotoxicity in Salmonella typhimurium TA100 assessed as number of revertant at 75 ug by AMES test (reference value: 64.3 to 130.7); type: toxicity, Salmonella enterica subsp. enterica serovar Typhimurium; conditions: in vivo; dose 75 µg
[6] = Genotoxicity in Salmonella typhimurium TA98 assessed as number of revertant at 10 ug by AMES test (reference value: 8 to 8.3); type: toxicity, Salmonella enterica subsp. enterica serovar Typhimurium; conditions: in vivo; dose 10 µg
[7] = Protection index, ratio of TD50 for toxicity in ip dosed mouse to ED50 for anticonvulsant activity in ip dosed mouse; type: organism-based; conditions: in vivo, read-out: PI
[8] = Genotoxicity in Salmonella typhimurium TA98 assessed as number of revertant at 75 ug by AMES test (reference value: 8 to 8.3); type: toxicity, Salmonella enterica subsp. enterica serovar Typhimurium; conditions: in vivo; dose 75 µg
[9] = Genotoxicity in Salmonella typhimurium TA98 assessed as mutagenic index at 75 ug by AMES test; type: toxicity, Salmonella enterica subsp. enterica serovar Typhimurium; conditions: in vivo; dose 75 µg
[10] = Toxicity in mouse assessed as lethality at 50 mg/kg, ip; type: organism-based; conditions: in vivo
[11] = system: Astrocyte; test: Cytotoxicity against human Astrocyte assessed as reduction in cell viability at 50 uM incubated for 24 hrs by MTT assay; type: cell-based
[12] = Genotoxicity in Salmonella typhimurium TA100 assessed as number of revertant at 200 ug by AMES test (reference value: 64.3 to 130.7); type: toxicity, Salmonella enterica subsp. enterica serovar Typhimurium; conditions: in vivo; dose 200 µg
[13] = system: Mus musculus; test: Antiallodynic activity in mouse model of OXA-induced peripheral neuropathy assessed as mean latency time to nocifensive response at 15 mg/kg, ip administered after 3 hrs of OXA stimulation and measured after 1 hr by cold plate method (reference value: 59.76 +/- 0.16 sec); type: functional
[14] = system: Mus musculus; test: Anticonvulsant activity in ip dosed mouse assessed as protection against current-induced seizure by maximal electroshock seizure test; type: functional
[15] = system: Mus musculus; test: Antiallodynic activity in mouse model of OXA-induced peripheral neuropathy assessed as mean paw withdrawal threshold at 15 mg/kg, ip administered after 3 hrs of OXA stimulation and measured after 1 hr by Von-frey method (reference value: 3.144 +/- 0.169 g); type: functional
[16] = Genotoxicity in Salmonella typhimurium TA100 assessed as mutagenic index at 75 ug by AMES test; type: toxicity, Salmonella enterica subsp. enterica serovar Typhimurium; conditions: in vivo; dose 75 µg
[17] = system: Mus musculus; test: Antiallodynic activity in mouse model of OXA-induced peripheral neuropathy assessed as mean latency time to nocifensive response at 15 mg/kg, ip administered after 7 days of OXA stimulation and measured after 1 hr by cold plate method (reference value: 57.64 +/- 1.267 sec); type: functional
[18] = Genotoxicity in Salmonella typhimurium TA100 assessed as number of revertant at 10 ug by AMES test (reference value: 64.3 to 130.7); type: toxicity, Salmonella enterica subsp. enterica serovar Typhimurium; conditions: in vivo; dose 10 µg
[19] = Genotoxicity in Salmonella typhimurium TA100 assessed as mutagenic index at 0.1 ug by AMES test; type: toxicity, Salmonella enterica subsp. enterica serovar Typhimurium; conditions: in vivo; dose 0.1 µg
[20] = Genotoxicity in Salmonella typhimurium TA100 assessed as number of revertant at 0.1 ug by AMES test (reference value: 64.3 to 130.7); type: toxicity, Salmonella enterica subsp. enterica serovar Typhimurium; conditions: in vivo; dose 0.1 µg
[21] = Genotoxicity in Salmonella typhimurium TA100 assessed as number of revertant at 1 ug by AMES test (reference value: 64.3 to 130.7); type: toxicity, Salmonella enterica subsp. enterica serovar Typhimurium; conditions: in vivo; dose 1 µg
[22] = Genotoxicity in Salmonella typhimurium TA98 assessed as mutagenic index at 200 ug by AMES test; type: toxicity, Salmonella enterica subsp. enterica serovar Typhimurium; conditions: in vivo; dose 200 µg
[23] = Genotoxicity in Salmonella typhimurium TA98 assessed as mutagenic index at 10 ug by AMES test; type: toxicity, Salmonella enterica subsp. enterica serovar Typhimurium; conditions: in vivo; dose 10 µg
[24] = system: Astrocyte; test: Cytotoxicity against mouse Astrocyte assessed as reduction in cell viability at 100 uM incubated for 48 hrs by trypan blue assay; type: cell-based
[25] = Genotoxicity in Salmonella typhimurium TA98 assessed as mutagenic index at 500 ug by AMES test; type: toxicity, Salmonella enterica subsp. enterica serovar Typhimurium; conditions: in vivo; dose 500 µg
[26] = Genotoxicity in Salmonella typhimurium TA98 assessed as number of revertant at 500 ug by AMES test (reference value: 8 to 8.3); type: toxicity, Salmonella enterica subsp. enterica serovar Typhimurium; conditions: in vivo; dose 500 µg
[27] = in vitro; conditions: mouse, microsomes
Description: Metabolic stability in mouse microsome assessed as intrinsic clearance

[28] = Antioxidant activity assessed as DPPH radical scavenging activity at 125 to 1000 uM by microplate method; type: functional; conditions: dose microM 125-1000
[29] = system: Astrocyte; test: Cytotoxicity against mouse Astrocyte assessed as reduction in cell viability at > 25 uM measured upto 48 hrs by crystal violet staining colorimetric assay; type: cell-based
[30] = in vitro; conditions: mouse, microsomes; remark: listed apart in the source
Description: Metabolic stability in mouse microsome assessed as half life

[31] = target: T1, 5-hydroxytryptamine receptor 1A (Homo sapiens, UniProt P08908); test: Binding affinity to 5-HT1A (unknown origin)
T1 sequence (P08908 whole entry): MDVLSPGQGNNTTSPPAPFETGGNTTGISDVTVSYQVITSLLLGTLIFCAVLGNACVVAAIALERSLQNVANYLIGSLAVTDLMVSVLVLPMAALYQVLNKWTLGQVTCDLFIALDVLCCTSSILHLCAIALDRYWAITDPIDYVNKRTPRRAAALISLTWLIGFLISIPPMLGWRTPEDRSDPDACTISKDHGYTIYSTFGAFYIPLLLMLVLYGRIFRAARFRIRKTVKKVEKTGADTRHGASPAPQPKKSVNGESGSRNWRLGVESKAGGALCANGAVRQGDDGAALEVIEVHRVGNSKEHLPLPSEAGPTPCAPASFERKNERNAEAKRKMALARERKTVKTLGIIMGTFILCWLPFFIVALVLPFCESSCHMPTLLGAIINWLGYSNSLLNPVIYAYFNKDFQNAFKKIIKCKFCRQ

[32] = Genotoxicity in Salmonella typhimurium TA98 assessed as number of revertant at 750 ug by AMES test (reference value: 8 to 8.3); type: toxicity, Salmonella enterica subsp. enterica serovar Typhimurium; conditions: in vivo; dose 750 µg
[33] = system: Astrocyte; test: Cytotoxicity against mouse Astrocyte assessed as reduction in cell viability at 100 uM incubated for 24 hrs by LDH assay; type: cell-based
[34] = Drug metabolism in mouse microsome assessed as formation of monohydroxylated metabolite; type: ADME; conditions: microsomes
[35] = Genotoxicity in Salmonella typhimurium TA100 assessed as mutagenic index at 200 ug by AMES test; type: toxicity, Salmonella enterica subsp. enterica serovar Typhimurium; conditions: in vivo; dose 200 µg
[36] = system: Mus musculus; test: Antiallodynic activity in mouse model of OXA-induced peripheral neuropathy assessed as mean paw withdrawal threshold at 15 mg/kg, ip administered after 7 days of OXA stimulation and measured after 1 hr by Von-frey method (reference value: 3.192 +/- 0.181 g); type: functional
[37] = Genotoxicity in Salmonella typhimurium TA100 assessed as mutagenic index at 1 ug by AMES test; type: toxicity, Salmonella enterica subsp. enterica serovar Typhimurium; conditions: in vivo; dose 1 µg

For `Cc1cc(C)c(C)c(OCCN[C@@H]2CCCC[C@H]2O)c1` (racemic), the Activity [1] was 6.7, the Activity_index [2] was 1.2 and the TD50 [3] was 78.3 mg/kg. The Activity_index [4] was 2.6, the Activity [5] was 105 and the Activity [6] was 7.3. It also gave a selectivity ratio [7] of 5, an Activity [8] of 6.3 and an Activity_index [9] of 0.8. For the same compound, the Activity [10] was “Non-Toxic”, the Activity [11] was “Toxic” and the Activity [12] was 49. It also gave a Time [13] of 22.333 s, an ED50 [14] of 15.7 mg/kg and an Activity [15] of 2.222 g. It also gave an Activity_index [16] of 1.4, a Time [17] of 9.278 s and an Activity [18] of 185.5. The Activity_index [19] was 1.1, the Activity [20] was 147 and the Activity [21] was 138.3. For the same compound, the Activity_index [22] was 0.8, the Activity_index [23] was 0.9 and the Activity [24] was “Toxic”. It also gave an Activity_index [25] of 1.1, an Activity [26] of 8.7 and a microsomal CLint [27] of 128 µL/min/mg. For the same compound, the Activity [28] was “inactive”, the Activity [29] was “Toxic” and the half-life [30] was 27.2 min. The Ki [31] was 1010 nM, the Activity [32] was 9.3 and the Activity [33] was “Toxic”. For the same compound, the Drug metabolism [34] was “Metabolite_Detected”, the Activity_index [35] was 0.7 and the Activity [36] was 2.122 g. It also gave an Activity_index [37] of 1.1.
